Measurements from US20060235062A1, “Novel heterocyclic analogs of diphenylethylene compounds” (THERACOS, INC., priority 2002, published 2006).
Read-outs that look alike come from different tables or passages of the source.

Key:
AIA rats = test: Cancellous bone loss in adjuvant induced arthritic (AIA) rats, MicroCT of right proximal tibia; format: in vivo, male Lewis rats
SJL-/J mice = test: Experimental allergic encephalomyelitis (EAE) in mice; format: in vivo; conditions: 200 μg once daily subcutaneous, FIG. 14
COX-2 = molecular target: T1, COX-2 (Mus musculus, UniProt Q05769); test: LPS-induced COX-2 activity in RAW cells (PGE2 production); format: cell-based; conditions: 0.1-100 μM, FIG. 12
T1 sequence (Q05769 18-604): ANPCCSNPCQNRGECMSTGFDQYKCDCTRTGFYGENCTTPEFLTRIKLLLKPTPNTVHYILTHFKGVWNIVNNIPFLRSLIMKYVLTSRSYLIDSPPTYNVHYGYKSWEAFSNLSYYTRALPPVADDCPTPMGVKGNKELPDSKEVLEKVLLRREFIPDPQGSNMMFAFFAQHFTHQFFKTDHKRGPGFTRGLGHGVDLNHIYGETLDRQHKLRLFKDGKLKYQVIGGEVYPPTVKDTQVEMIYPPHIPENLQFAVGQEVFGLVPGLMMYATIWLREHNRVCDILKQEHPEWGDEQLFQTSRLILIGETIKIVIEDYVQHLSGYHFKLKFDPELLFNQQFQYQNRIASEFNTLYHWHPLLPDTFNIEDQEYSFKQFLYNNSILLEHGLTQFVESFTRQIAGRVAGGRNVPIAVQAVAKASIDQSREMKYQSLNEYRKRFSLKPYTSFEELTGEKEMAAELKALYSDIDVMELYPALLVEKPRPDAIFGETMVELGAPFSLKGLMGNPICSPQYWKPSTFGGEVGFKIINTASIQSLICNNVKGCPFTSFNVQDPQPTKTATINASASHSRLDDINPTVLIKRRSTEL
Experimental: After 1 hour LPS (0.1 pg/mL) was added and cells were incubated an additional 6 hours. Cell supernatant was then collected, aliquoted and frozen at −70° C., and aliquots used to determine COX-2 and COX-1 activity. Compound 11, but not rosiglitazone, inhibited the activity of COX-2 (as measured by PGE2 production in a 50 μl sample).

Human PPAR-γ2 = molecular target: T2, Human PPAR-γ2 (Homo sapiens, UniProt P37231); test: PPAR-gamma mediated transactivation of PPRE-luciferase reporter; format: cell-based
T2 construct: inserting the PPARγ2 cDNA coding region into pcDNA3.1+ vector; expressed in transfected cells; host or cells: HEK293 cells (ATCC)
T2 sequence (P37231 1-505): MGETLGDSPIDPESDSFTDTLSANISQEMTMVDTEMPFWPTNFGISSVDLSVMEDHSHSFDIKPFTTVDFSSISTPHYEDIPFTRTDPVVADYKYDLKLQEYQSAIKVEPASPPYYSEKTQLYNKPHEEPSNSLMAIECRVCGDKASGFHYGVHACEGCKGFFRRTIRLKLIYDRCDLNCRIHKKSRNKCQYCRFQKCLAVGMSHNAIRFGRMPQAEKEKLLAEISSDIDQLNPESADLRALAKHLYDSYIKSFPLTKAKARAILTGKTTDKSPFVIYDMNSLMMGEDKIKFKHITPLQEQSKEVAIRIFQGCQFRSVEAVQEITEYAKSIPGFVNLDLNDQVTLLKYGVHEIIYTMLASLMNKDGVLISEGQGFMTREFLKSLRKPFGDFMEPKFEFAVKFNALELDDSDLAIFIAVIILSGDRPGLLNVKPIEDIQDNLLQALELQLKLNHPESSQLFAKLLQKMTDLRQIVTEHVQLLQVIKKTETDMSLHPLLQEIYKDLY
Experimental: Human PPAR-γ2 expression vector was constructed by inserting PPAR-γ2 encoding region into pcDNA3.1+ vector (Invitrogen, Carlsbad, Calif.). Luciferase reporter vector was constructed by ligating PPRE response element adjacent to the upstream of Firefly luciferase coding region. Control vector, pRL-SV40 expressing Renilla luciferase was purchased from Promega (Madison, Wis.).
About 2.7×10^4 293 cells (ATCC, Manassas, Va.) were plated into a 35 mm culture well and maintained in Eagle's Minimal Essential Medium (ATCC, Manassas, Va.) supplemented with 10% heat inactivated horse serum (ATCC, Manassas, Va.) for 24 hours. Expression, reporter and control vectors (2.5 ng control and 100 ng others per culture well) were transfected by LI[…]™ Reagent (Invitrogen, Carlsbad, Calif.). Transfection reagent and DNA were prepared according to manufacture's recommendations and incubated with cells for 3 hours followed by adding equal volume EMEM supplemented with 20% horse serum. Twenty-four hours after transfection, cells were treated with vehicle or compounds at indicated final concentration for 24 hours. Final concentration of vehicle was 0.001% DMSO (Sigma, ST Louis, Mo.) in medium. Vehicle and compound treatment were all conducted in triplicate. Each culture well was then assayed for a response characterized by increased Firefly luciferase activity normalized with Renilla luciferase activity.
Assays for Firefly luciferase activity and Renilla luciferase activity followed the standard protocol of Dual-luciferase Reporter® Assay System (Promega, Madison, Wis.). Briefly, 400 μl Passive Lysis Buffer was added into each culture well and all wells were placed on a shaker for 15 minutes. Five μl cell lysate of each well was added to a reaction tube. Luciferase reagent II and Stop & Glo® were injected into the reaction tube sequentially by Sirius Luminometer (Berthold Detection Systems, Pforzheim, Germany). Final reporter activity was calculated as the ratio of Firefly luciferase activity over by Renilla luciferase activity.
Human PPARγ2 expression vector was constructed by inserting the PPARγ2 cDNA coding region into pcDNA3.1+ vector (Invitrogen, Carlsbad, Calif.). The PPRE-luciferase reporter gene was the kind gift of Dr. Kenneth Feingold. The control vector, pRL-SV40 containing the Renilla luciferase cDNA was purchased from Promega (Madison, Wis.). About 2.7×10^4 HEK293 human embryonal kidney cells (ATCC) were plated into a 35-mm tissue culture dish and maintained in Eagle Modified Essential Medium (EMEM, ATCC) containing 10% heat-inactivated horse serum for 24 h. Expression, reporter (100 ng/dish) and control (2.5 ng/dish) vectors were transfected using LI[…]™ Reagent (GibcoBRL) according to manufacturer's recommendation. At 24 h after transfection, cells were treated with vehicle (0.001% DMSO in medium) or compounds at the indicated concentration and incubated for 24 h. Each treatment was conducted in triplicate. Each culture dish was assayed for firefly luciferase activity normalized by Renilla luciferase activity to account for differences in transfection efficiency. Luciferase activity was measured using the Dual-luciferase Reporter® Assay System (Promega) and a Sirius luminometer (Berthold Detection System, Pforzheim, Germany).

TNF-alpha = test: LPS-induced TNF-alpha production in RAW cells (ELISA); format: cell-based; conditions: RAW cells, 0.1, 1, 10, 50 or 100 pM, 1 hour preincubation, LPS 6 hours, FIG. 9

COC(=O)C(=Cc1cc(OC)cc(OC)c1)c1ccc(Oc2ccc(CC3SC(=O)NC3=O)cc2)cc1 (stereo not shown) [Compound 11, 3-(3,5-Dimethoxyphenyl)-2-{4-[4-(2,4-dioxothiazolidin-5-ylmethyl)-phenoxy]-phenyl}-acrylic acid methyl ester]
less cancellous bone lost (AIA rats; AIA rats, treated vs vehicle): ~50%
C.Th (AIA rats; right proximal tibia): 186 ± 25 μm
Conn. Dens (AIA rats; right proximal tibia): 38.3 ± 19.7 l/mm3
SMI (0-3) (AIA rats; right proximal tibia): 2.8 ± 0.3
Tb.N (AIA rats; right proximal tibia): 2.6 ± 0.5 l/mm
BV/TV (AIA rats; right proximal tibia, compound 11 50 mg/kg oral, etanercept 1.67 mg/kg i.p., once daily): 13.7 ± 4.7%
amelioration of EAE (clinical score) (SJL-/J mice): highly effective
inhibition of COX-2 activity (PGE2 production) (COX-2): inhibited
transactivation potency less than that of rosiglitazone (Human PPAR-γ2): ≤ 30 fold
EC50 (Human PPAR-γ2; HEK293 cells, human PPAR-gamma2, ± SE, n=5, FIG. 24, read-out: EC50 for transactivation of PPRE-Luc reporter): 284 ± 36 nM
EC50 (Human PPAR-γ2; cells transfected with human PPAR-gamma2, 24 hours, non-linear regression, read-out: EC50, induction of PPAR-γ mediated luciferase activity): 280 nM
PPAR-gamma transactivation potency relative to a comparator, in words (Human PPAR-γ2; in vitro transactivation assay): approximately one-thirtieth the activity of rosiglitazone
inhibition of LPS-induced TNF-alpha production (TNF-alpha): better inhibitor of TNF-alpha than rosiglitazone
